Among the data in patent US9944645B2, “Imidazotriazines and imidazopyrimidines as kinase inhibitors” (Incyte Holdings Corporation, priority 2006, dated 2018) are IC50 values, retold here.

Structures are written as SMILES. Some results are limits rather than exact numbers.

The assay deals with c-Met kinase (h-Met; histidine-tagged c-Met catalytic domain fusion protein) (Homo sapiens (Human), UniProt P08581). In words: In Vitro c-Met Kinase Enzyme Assays. Format: biochemical. To be noted: phosphorylation of poly Glu-Tyr, 5 μM ATP, 25 minutes at 30° C. The protocol: Compounds were screened in vitro for their ability to inhibit c-Met kinase activity. […] Briefly, histidine-tagged c-Met catalytic domain fusion protein (Invitrogen, #PV3143) was used for the assay. […] The reaction lasted for 25 minutes at 30° C. After the reaction was completed, the contents of the plates was discarded. Plates were then washed with TBS-T (250 μL/well, 5×) and then blocked with TBS-T containing 1% BSA for 2 hours. The contents of the plates was discarded, and 100 μL (per well) of peroxidase-labeled anti-phospho-tyrosine antibody (Sigma, #A5964) diluted (1:60,000) in 1% BSA containing TBS-T were then added and incubated for 1 hour. Plates were washed with TBS-T ([…], 5×) and followed by the color reaction using 100 μL (1:1 mixture) of H2O2 and tetramethylbenzidine (R&D Systems, #DY999). The reaction was stopped in minutes with 100 μL of 2 N H2SO4. The optical density was measured immediately using a microplate reader at 450 nm with wavelength correction at 540 nm. IC50 values were calculated with the GraphPad Prism software. The linear range (i.e., the time period over which the rate remained equivalent to the initial rate) was determined for the kinase and IC50 determinations were performed within this range.
Sequence of c-Met kinase (h-Met; histidine-tagged c-Met catalytic domain fusion protein) (P08581 1078-1345): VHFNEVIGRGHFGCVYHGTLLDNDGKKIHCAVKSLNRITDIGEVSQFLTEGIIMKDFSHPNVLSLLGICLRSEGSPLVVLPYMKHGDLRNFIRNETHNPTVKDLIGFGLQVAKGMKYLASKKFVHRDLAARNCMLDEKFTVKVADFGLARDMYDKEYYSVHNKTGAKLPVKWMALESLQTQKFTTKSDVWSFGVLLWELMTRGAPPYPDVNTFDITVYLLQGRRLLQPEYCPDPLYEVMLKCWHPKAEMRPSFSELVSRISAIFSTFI

Broadly, the IC50 is the midpoint of a concentration-inhibition curve. The low end stands for greater potency in that assay, the high end for weaker potency in that assay. Regarding `COC1CCN(C(=O)C(C)NC(=O)c2ccc(-c3cnc4ncc(C5(c6ccc7ncccc7c6)CC5)n4c3)cc2F)C1` (single isomer, unassigned) [Example 201], the IC50 is under 500 nM.

In turn, `N#CC1CCN(C(=O)c2ccc(-c3cnc4ncc(C5(c6ccc7ncccc7c6)CC5)n4c3)cc2)C1` (stereo in doubt) [Example 52, (3R)-1-{4-[3-(1-Quinolin-6-ylcyclopropyl)imidazo[1,2-a]pyrimidin-6-yl]benzoyl}pyrrolidine-3-carbonitrile] showed an IC50 of under 500 nM.

As for `COc1ccc(Cc2cnc3ncc(-c4ccc(F)cc4)nn23)cc1` [Example 1], the IC50 was under 500 nM.

Take `COc1ccc(C2(c3cnc4ncc(-c5ccc(F)cc5)nn34)CC2)cc1` [Example 2, 2-(4-Fluorophenyl)-7-[1-(4-methoxyphenyl)cyclopropyl]imidazo[1,2-b]-[1,2,4]-triazine]: the IC50 is under 500 nM.

`Fc1ccc(-c2cnc3ncc(C4(c5ccc6ncccc6c5)CC4)n3n2)cc1` [Example 3, 6-(1-(2-(4-Fluorophenyl)imidazo[1,2-b][1,2,4]-triazin-7-yl)cyclopropyl)quinoline] returned an IC50 of under 500 nM.

On to `COc1ccc(Cc2cnc3ncc(-c4ccc(F)cc4)cn23)cc1` [Example 4, 6-(4-Fluorophenyl)-3-(4-methoxybenzyl)imidazo[1,2-a]pyrimidine], for which the IC50 was under 500 nM.

The compound `COc1ccc(C2(c3cnc4ncc(-c5ccc(F)cc5)cn34)CC2)cc1` [Example 5, 6-(4-Fluorophenyl)-3-(1-(4-methoxyphenyl)cyclopropyl)imidazo[1,2-a]pyrimidine] returned an IC50 of under 500 nM.

`Fc1ccc(-c2cnc3ncc(C4(c5ccc6ncccc6c5)CC4)n3c2)cc1` [Example 6, 6-(1-(6-(4-Fluorophenyl)imidazo[1,2-a]pyrimidin-3-yl)cyclopropyl)quinoline] yielded an IC50 of under 500 nM.

As for `COc1ccc(Sc2cnc3ncc(-c4ccc(Br)c(F)c4)nn23)cc1` [Example 8, 2-(4-Bromo-3-fluorophenyl)-7-[(4-methoxyphenyl)thio]imidazo[1,2-b][1,2,4]triazine], the IC50 was under 500 nM.

With `CNC(=O)c1ccc(-c2cnc3ncc(Sc4ccc(OC)cc4)n3c2)cc1F` [Example 9, 2-Fluoro-4-(3-[(4-methoxyphenyl)thio]imidazo[1,2-a]pyrimidin-6-yl)-N-methylbenzamide], the IC50 is under 500 nM.

On to `CNC(=O)c1ccc(-c2cnc3ncc(Sc4ccc(OC)cc4)n3c2)cc1Cl` [Example 10, 2-chloro-4-3-[(4-methoxyphenyl)thio]imidazo[1,2-a]pyrimidin-6-yl-N-methylbenzamide], for which the IC50 was under 500 nM.

`CNC(=O)c1ccc(-c2cnc3ncc(Sc4ccc5ncccc5c4)n3c2)cc1F` [Example 11, 2-Fluoro-N-methyl-4-[3-(quinolin-6-ylthio)imidazo[1,2-a]pyrimidin-6-yl]benzamide] displayed an IC50 of under 500 nM.

Consider `CNC(=O)c1ccc(-c2cnc3ncc(Sc4ccc5ncccc5c4)n3c2)cc1Cl` [Example 12, 2-chloro-N-methyl-4-[3-(quinolin-6-ylthio)imidazo[1,2-a]pyrimidin-6-yl]benzamide], for which the IC50 was under 500 nM.

In turn, `COC(=O)c1ccc(-c2cnc3ncc(Sc4ccc5ncccc5c4)n3n2)cc1F` [Example 13, Methyl 2-fluoro-4-[7-(quinolin-6-ylthio)imidazo[1,2-b][1,2,3]triazin-2-yl]benzoate] yielded an IC50 of under 500 nM.

The compound `COc1ccc(Oc2cnc3ncc(-c4ccc(Br)c(F)c4)nn23)cc1` [Example 14, 2-(4-Bromo-3-fluorophenyl)-7-(4-methoxyphenoxy)imidazo[1,2-b][1,2,4]triazine] displayed an IC50 of under 500 nM.

In turn, `COc1ccc(Oc2cnc3ncc(-n4cc(C)cn4)cn23)cc1` [Example 15, 3-(4-Methoxyphenoxy)-6-(4-methyl-1H-pyrazol-1-yl)imidazo[1,2-a]pyrimidine] had an IC50 of under 500 nM.

Regarding `COc1ccc(Oc2cnc3ncc(-c4ccc(Br)cc4)cn23)cc1` [Example 16, 6-(4-Bromophenyl)-3-(4-methoxyphenoxy)imidazo[1,2-a]pyrimidine], the IC50 is under 3000 nM.

`CNC(=O)c1ccc(-c2cnc3ncc(Oc4ccc5ncccc5c4)n3c2)cc1Cl` [Example 17, 2-chloro-N-methyl-4-[3-(quinolin-6-yloxy)imidazo[1,2-a]pyrimidin-6-yl]benzamide] returned an IC50 of under 500 nM.

`CNC(=O)c1ccc(-c2cnc3ncc(C4(c5ccc6ncccc6c5)CC4)n3c2)cc1F` [Example 18, 2-Fluoro-N-methyl-4-[3-(1-quinolin-6-ylcyclopropyl)imidazo[1,2-a]pyrimidin-6-yl]benzamide] yielded an IC50 of under 500 nM.

For the compound `COc1ccc(Sc2cnc3ncc(-c4ccc(Br)cc4)cn23)cc1` [Example 19, 6-(4-bromophenyl)-3-[(4-methoxyphenyl)thio]imidazo[1,2-a]pyrimidine], the IC50 is under 500 nM.

For `COc1ccc(Sc2cnc3ncc(-c4ccc(F)cc4)nn23)cc1` [Example 20, 2-(4-fluorophenyl)-7-[(4-methoxyphenyl)thio]imidazo[1,2-b][1,2,4]triazine], the IC50 was under 500 nM.

Consider `CC(Oc1ccc(-c2cnc3ncc(C4(c5ccc6ncccc6c5)CC4)n3c2)cc1F)C(=O)N1CCCC1` (centres unmarked) [Example 21, 6-(1-{6-[3-Fluoro-4-(1-methyl-2-oxo-2-pyrrolidin-1-ylethoxy)phenyl]imidazo[1,2-a]pyrimidin-3-yl}cyclopropyl)quinoline], for which the IC50 was under 500 nM.

Take `c1cnc2ccc(C3(c4cnc5ncc(-n6cccn6)cn45)CC3)cc2c1` [Example 22, 6-{1-[6-(1H-Pyrazol-1-yl)imidazo[1,2-a]pyrimidin-3-yl]cyclopropyl}quinoline]: the IC50 was under 500 nM.

Regarding `Cc1cnn(-c2cnc3ncc(C4(c5ccc6ncccc6c5)CC4)n3c2)c1` [Example 23, 6-{1-[6-(4-Methyl-1H-pyrazol-1-yl)imidazo[1,2-a]pyrimidin-3-yl]cyclopropyl}quinoline], the IC50 is under 500 nM.

Compound `CN(C)C(=O)c1cnn(-c2cnc3ncc(C4(c5ccc6ncccc6c5)CC4)n3c2)c1` [Example 24, N,N-Dimethyl-1-[3-(1-quinolin-6-ylcyclopropyl)imidazo[1,2-a]pyrimidin-6-yl]-1H-pyrazole-4-carboxamide] displayed an IC50 of under 500 nM.

`Cc1csc(C(C)NC(=O)c2cnn(-c3cnc4ncc(C5(c6ccc7ncccc7c6)CC5)n4c3)c2)n1` (centres unmarked) [Example 25, N-[1-(4-Methyl-1,3-thiazol-2-yl)ethyl]-1-[3-(1-quinolin-6-ylcyclopropyl)imidazo[1,2-a]pyrimidin-6-yl]-1H-pyrazole-4-carboxamide] displayed an IC50 of under 500 nM.

The compound `O=C(NC1CCCCC1)c1cnc2ncc(C3(c4ccc5ncccc5c4)CC3)n2c1` [Example 26, N-Cyclohexyl-3-(1-quinolin-6-ylcyclopropyl)imidazo[1,2-a]pyrimidine-6-carboxamide] returned an IC50 of under 500 nM.

`O=C(NCC1CCCO1)c1cnc2ncc(C3(c4ccc5ncccc5c4)CC3)n2c1` (centres unmarked) [Example 27, 3-(1-Quinolin-6-ylcyclopropyl)-N-(tetrahydrofuran-2-ylmethyl)imidazo[1,2-a]pyrimidine-6-carboxamide] came in with an IC50 of under 500 nM.

`O=C(NC1CCC1)c1ccc(-c2cnc3ncc(C4(c5ccc6ncccc6c5)CC4)n3c2)cc1` [Example 28, N-Cyclobutyl-4-[3-(1-quinolin-6-ylcyclopropyl)imidazo[1,2-a]pyrimidin-6-yl]benzamide]: the IC50 was under 500 nM.

Compound `O=C(c1ccc(-c2cnc3ncc(C4(c5ccc6ncccc6c5)CC4)n3c2)cc1)N1CCC1` [Example 29, 6-(1-{6-[4-(Azetidin-1-ylcarbonyl)phenyl]imidazo[1,2-a]pyrimidin-3-yl}cyclopropyl)quinoline] gave an IC50 of under 500 nM.

The compound `CN(C)C(=O)c1ccc(-c2cnc3ncc(C4(c5ccc6ncccc6c5)CC4)n3c2)cc1` [Example 30, N,N-Dimethyl-4-[3-(1-quinolin-6-ylcyclopropyl)imidazo[1,2-a]pyrimidin-6-yl]benzamide] yielded an IC50 of under 500 nM.

As to `O=C(NCC1CCCO1)c1ccc(-c2cnc3ncc(C4(c5ccc6ncccc6c5)CC4)n3c2)cc1` (centres unmarked) [Example 31, 4-[3-(1-Quinolin-6-ylcyclopropyl)imidazo[1,2-a]pyrimidin-6-yl]-N-(tetrahydrofuran-2-ylmethyl)benzamide], the IC50 was under 500 nM.

Take `CN(C(=O)c1ccc(-c2cnc3ncc(C4(c5ccc6ncccc6c5)CC4)n3c2)cc1)C1CCN(Cc2ccccc2)C1` (centres unmarked) [Example 32, N-(1-Benzylpyrrolidin-3-yl)-N-methyl-4-[3-(1-quinolin-6-ylcyclopropyl)imidazo[1,2-a]pyrimidin-6-yl]benzamide]: the IC50 was under 500 nM.

Regarding `O=C(NC1CCN(c2ccccn2)CC1)c1ccc(-c2cnc3ncc(C4(c5ccc6ncccc6c5)CC4)n3c2)cc1` [Example 33, N-(1-Pyridin-2-ylpiperidin-4-yl)-4-[3-(1-quinolin-6-ylcyclopropyl)imidazo[1,2-a]pyrimidin-6-yl]benzamide], the IC50 is under 500 nM.

In turn, `CC(NC(=O)c1ccc(-c2cnc3ncc(C4(c5ccc6ncccc6c5)CC4)n3c2)cc1)c1ccccn1` (centres unmarked) [Example 34, N-(1-Pyridin-2-ylethyl)-4-[3-(1-quinolin-6-ylcyclopropyl)imidazo[1,2-a]pyrimidin-6-yl]benzamide] displayed an IC50 of under 500 nM.
